According to US10955415B2, “CD247 as a biomarker for assessing the effect of chemotherapeutic and biological drugs” (YISSUM RESEARCH DEVELOPMENT COMPANY OF THE HEBREW …, priority 2011, dated 2021):
Entries after “also recorded” stand apart in the source; their conditions may differ.

Columns and labels:
[1] = system: MDSCs (Gr1+CD11b+); parameters: species or system mice; settings: mouse, in vivo
[2] = system: CD4+Foxp3+ Treg cells; parameters: species or system mice; settings: mouse, in vivo
[3] = system: CD247 (ζ chain); parameters: species or system mice; settings: mouse, in vivo; for increase in the expression value of CD247 upon treatment: ip
[4] = system: CD3ε chain; parameters: species or system mice; settings: mouse, in vivo
[5] = system: MDSCs; assay type: in vivo, mice; settings: spleen of BCG-inflamed mice, monotherapy, MFI
[6] = system: CD247; assay: Adoptive transfer of CFSE-labeled normal splenocytes, CD247 in host and donor cells; assay type: in vivo, mice; settings: BCG-inflamed hosts, 24 h after transfer, spleen
Method: CFSE-labeled splenocytes from normal mice (donor cells) were adoptively transferred into mice untreated, inflamed, and inflamed treated i.p. with irinotecan (hosts). After 24 h, splenocytes from each group were harvested and stained for CD247 expression (MFI) in CD3+ T cells within the CFSE+ (donor-cell) or CFSE− (host-cell) population. Data from three independent experiments (n=4) is presented. Statistical analyses using t test indicated significant differences at 95% Cl. Means and SEM are shown. * P<0.05. Abbreviations: Ho. (host), Do. (donor), cont. (control).
CFSE-labeled splenocytes from normal mice (donor cells) were adoptively transferred into non-inflamed, inflamed, and inflamed mice treated i.p. with 5-FU (hosts). After 24 h, splenocytes from each group were harvested and stained for CD247 expression (MFI) in CD3+ T cells within the CFSE+ (donor-cell) or CFSE− (host-cell) population. Data from three independent experiments (n=4) is presented. Statistical analyses using t test indicated significant differences at 95% Cl. Means and SEM are shown. *, P<0.05. Abbreviations: Ho. (host), Do. (donor), cont. (control).
Next, the effect of etanercept treatment on the host's immune status as well as on adoptively transferred T- and NK-cells was examined. It should be noted that adoptively transferred T- and NK-cells being a treatment that is frequently used today in different immunotherapeutic regiments for various pathologies. To this end, CFSE-labeled normal splenocytes were administered, i.v., 1 day before cell harvest, at the peak of the inflammatory response (mimicking cell mediated therapies).

[7] = system: CD11b+CD11c+ and CD11b+F4/80+ cells; assay: Myeloid differentiation state in spleen (DCs, macrophages, APC maturation); assay type: in vivo; settings: BCG-inflamed mice
Excerpt: FIG. 18A-18E. Splenocytes and PBLs from mice untreated (naïve), inflamed, or inflamed and treated with 5-FU or CPT-11 were fixed, permeabilized, and double stained for the expression of CD247 (ζ-chain) (FIGS. 18A, 18B) and CD3ε-chain (FIGS. 18D, 18E), as shown by mean fluorescence intensity (MFI), measured in gated CD3^+ cells. FIG. 18C: Splenocytes from mice, naïve, inflamed and inflamed treated with 5-FU or CPT-11, were labeled with CFSE and activated with anti-CD3 and anti-CD28 antibodies or left non-activated. The proliferative response was assessed by monitoring cell divisions of gated CFSE-labeled Thy1.2+ (CD90+) T-cells. The percent of proliferating cells was calculated and compared to steady state levels of non-activated cells per each group. Data from three independent experiments is presented (n=3). Statistical analyses using t test indicated significant differences at 95%. Means and SEM are shown. *, P<0.05; **, P<0.01. FIG. 18F-18I. For the detection of myeloid differentiation state, splenocytes from each group were stained for (18F) DC11b^+CD11c^+ cells (representing DCs), (18G) DC11b^+F4/80^+ cells (representing monocytes), (18H) CD11c^+MHCII^+CD80^+ cells (representing fully differentiated […] as antigen presenting cells) and (18I) F4/80^+MHCII^+CD80^+ cells (representing fully differentiated […] as antigen presenting cells). Data from three independent experiments (n=4) is presented. Statistical analyses using t test indicated significant differences at 95%. Means and SEM are shown. *, P<0.05; **, P<0.01; ***, P<0.001. Abbreviations: Nor. (normal), Rel. (relative), Inf. (inflamed), ce. Pro. (cell proliferation)
Isolated splenocytes and peripheral blood leukocytes (PBLs) were treated with erythrocyte lysis buffer and washed in PBS. Cells were pre-coated with anti-CD16/CD32 (Biolegend) for FcR blockage. For surface staining, cells were incubated for 30 min at 4° C. with FITC-labeled anti-Gr1, anti-CD11c, and anti-CD4; PE-labeled anti F4/80, anti-CD3ε, anti-CD45R/B220, and anti-mNKp46; and biotinylated anti-CD11b and anti-CD8 that were detected with streptavidin-Cy5 (Biolegend and eBioscience). Intracellular staining of CD247 cells was performed by subjecting the cells to fixation with paraformaldehyde (1%) for 20 min at 4° C., followed by washing and permeabilization for 10 min with saponin detergent (0.1%) at room temperature (RT). Cells were then washed and incubated with FITC-labeled monoclonal anti-CD247 (H146) (Abcam), or biotinylated monoclonal anti-CD247 (H146), which were subsequently detected with streptavidin-Cy5. FoxP3 staining was performed according to the manufacturer's instructions. Samples were analyzed using FACSCalibur with Cell Quest software (BD).

[8] = Spleen weight and size, BCG chronic inflammation mouse model; assay type: in vivo; settings: BCG-inflamed WT-mice, 2 days after third BCG injection
Method: FIG. 15B. Spleen weight (left) and size (right) in etanercept-treated and untreated mice (n=7) was evaluated 2 days following the third BCG injection. *P<0.003, **P<0.002 (t-test). Data are from two independent experiments (mean and s.d.).
Induced chronic inflammation in mice was established by sustained subcutaneous injections of the heat-killed Bacille Calmette Guerin strain of Mycobacterium tuberculosis, (231141; Difco Laboratories) (BCG, 50 μg per animal/dose) once a week, for three weeks. The first two BCG administrations were mixed 1:1 with Incomplete Freund's adjuvant (IFA) (Sigma), and the second boost delivery was given with PBS. Mice sacrifice and cell isolations were performed two days after the third injection. Spleen weight was measured and cells from the spleen and peripheral blood (PBLs) were analyzed. The results represent three independent experiments.

Molecule | MDSC levels in peripheral blood (PBLs) [1] | MDSC levels in the spleen [1] | levels of Treg cells (CD4+Foxp3+) in spleen [2] | CD247 expression in T cells, spleen [3] | increase in the expression value of CD247 upon treatment [3] | CD3ε expression levels [4] | NO production by MDSCs [5] | ROS production by MDSCs [5] | CD247 expression in T cells, PBLs [3] | CD247 expression in host and adoptively transferred donor NK cells [6] | CD247 expression in host and adoptively transferred donor T cells [6] | differentiated myeloid cells in spleen (CD11b+CD11c+ DCs, CD11b+F4/80+ macrophages) [7] | spleen size and weight [8]
CS(=O)(=O)OCCCCOS(C)(=O)=O [Busulfan, 1,4-butanediol dimethanesulfonate] | significant decline; also recorded: decrease; also recorded: reduced | significant decline; also recorded: decrease; also recorded: reduced | remained unchanged | initial recovery | about 23% | remained uniform among the different groups |  |  |  |  |  |  | 
O=P1(N(CCCl)CCCl)NCCCO1 (stereo not shown) [Cyclophosphamide] | significantly increased; also recorded: significant accumulation | remained high; also recorded: significantly increased | decrease | down-regulation of CD247 that was observed in the course of chronic inflammation was maintained |  | remained normal | maintained high | maintained high |  |  |  |  | 
COc1cccc2c1C(=O)c1c(O)c3c(c(O)c1C2=O)C[C@@](O)(C(=O)CO)C[C@@H]3O[C@H]1C[C@H](N)[C@H](O)[C@H](C)O1 [Doxorubicin] | significant decline; also recorded: decrease; also recorded: reduced | significant decline; also recorded: decrease; also recorded: reduced | not affected; also recorded: no change | clear increase | about 24% | uniform among the different groups |  |  | clear increase |  |  |  | 
etanercept |  | decreased percentage of MDSCs |  |  |  |  |  |  |  | significantly increased | significantly increased | significant increase | reduced spleen size and weight
